Tests used:
Assay in all cases: PARP profiling, parsylation of immobilized histone
Format in all cases: biochemical
PARP12 = target: T1, PARP12 (Homo sapiens, UniProt Q9H0J9)
T1 sequence (Q9H0J9 1-701): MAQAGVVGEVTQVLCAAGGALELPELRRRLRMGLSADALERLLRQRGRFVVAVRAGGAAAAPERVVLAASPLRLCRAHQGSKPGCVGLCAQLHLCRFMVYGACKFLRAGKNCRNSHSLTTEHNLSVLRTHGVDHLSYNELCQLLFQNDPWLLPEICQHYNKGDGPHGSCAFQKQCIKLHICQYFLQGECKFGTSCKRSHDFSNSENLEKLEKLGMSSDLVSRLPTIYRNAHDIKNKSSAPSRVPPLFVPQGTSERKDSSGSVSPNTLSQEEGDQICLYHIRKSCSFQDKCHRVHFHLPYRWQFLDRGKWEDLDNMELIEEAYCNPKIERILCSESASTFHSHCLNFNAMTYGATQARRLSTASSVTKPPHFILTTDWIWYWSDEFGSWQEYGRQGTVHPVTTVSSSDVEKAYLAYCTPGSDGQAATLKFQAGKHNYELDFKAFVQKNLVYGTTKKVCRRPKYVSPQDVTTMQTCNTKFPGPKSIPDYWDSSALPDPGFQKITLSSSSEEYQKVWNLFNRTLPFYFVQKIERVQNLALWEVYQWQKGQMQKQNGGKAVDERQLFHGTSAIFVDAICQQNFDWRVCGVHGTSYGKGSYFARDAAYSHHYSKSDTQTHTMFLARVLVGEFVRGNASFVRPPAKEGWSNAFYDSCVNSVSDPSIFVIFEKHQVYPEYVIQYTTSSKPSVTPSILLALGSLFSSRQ
Description: (§1) Performed by BPS Bioscience Inc., San Diego by following the BPS PARP or TNKS assay kit protocols. The enzymatic reactions were conducted in duplicate at room temperature for 1 hr in a 96 well plate coated with histone substrate. […] of reaction buffer (Tris.HCl, pH 8.0) contains NAD^+, biotinylated NAD^+, activated DNA, recombinant PARP enzyme and 10 μM of the test compound. […] After enzymatic reactions, 50 μL of Streptavidin-horseradish peroxidase was added to each well and the plate was incubated at room temperature for an additional 30 min. 100 μL of developer reagents were added to wells and luminescence was measured using a BioTek Synergy™ 2 microplate reader.

PARP10 = target: T2, PARP10 (Homo sapiens, UniProt Q53GL7)
T2 sequence (Q53GL7 1-1025): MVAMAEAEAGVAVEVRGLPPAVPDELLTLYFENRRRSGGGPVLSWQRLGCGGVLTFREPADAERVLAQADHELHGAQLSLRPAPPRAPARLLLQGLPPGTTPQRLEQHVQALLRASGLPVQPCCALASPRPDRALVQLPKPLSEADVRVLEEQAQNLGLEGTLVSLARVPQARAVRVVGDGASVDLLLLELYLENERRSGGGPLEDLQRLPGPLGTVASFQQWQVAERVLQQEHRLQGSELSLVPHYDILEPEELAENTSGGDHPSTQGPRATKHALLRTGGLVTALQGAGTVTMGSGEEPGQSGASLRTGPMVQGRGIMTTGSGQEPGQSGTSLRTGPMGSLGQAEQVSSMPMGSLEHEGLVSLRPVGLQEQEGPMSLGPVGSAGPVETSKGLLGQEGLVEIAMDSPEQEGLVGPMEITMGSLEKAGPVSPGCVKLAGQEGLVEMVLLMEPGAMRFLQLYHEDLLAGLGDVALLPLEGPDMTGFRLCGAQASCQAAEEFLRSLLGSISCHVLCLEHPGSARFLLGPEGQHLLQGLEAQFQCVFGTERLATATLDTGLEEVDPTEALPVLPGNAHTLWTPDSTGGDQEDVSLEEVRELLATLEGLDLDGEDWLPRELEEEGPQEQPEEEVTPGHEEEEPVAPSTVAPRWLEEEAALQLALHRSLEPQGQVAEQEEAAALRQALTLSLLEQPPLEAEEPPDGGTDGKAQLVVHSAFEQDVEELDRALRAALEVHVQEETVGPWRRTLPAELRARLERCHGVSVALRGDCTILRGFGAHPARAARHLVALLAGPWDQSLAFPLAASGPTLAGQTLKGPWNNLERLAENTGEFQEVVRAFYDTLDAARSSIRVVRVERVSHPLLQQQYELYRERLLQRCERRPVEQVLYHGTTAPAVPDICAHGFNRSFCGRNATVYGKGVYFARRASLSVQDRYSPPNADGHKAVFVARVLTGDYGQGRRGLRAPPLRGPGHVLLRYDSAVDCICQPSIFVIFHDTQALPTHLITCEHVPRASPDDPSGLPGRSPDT
Description: as §1

PARP3 = target: T3, PARP3 (Homo sapiens, UniProt Q9Y6F1)
T3 sequence (Q9Y6F1 1-533): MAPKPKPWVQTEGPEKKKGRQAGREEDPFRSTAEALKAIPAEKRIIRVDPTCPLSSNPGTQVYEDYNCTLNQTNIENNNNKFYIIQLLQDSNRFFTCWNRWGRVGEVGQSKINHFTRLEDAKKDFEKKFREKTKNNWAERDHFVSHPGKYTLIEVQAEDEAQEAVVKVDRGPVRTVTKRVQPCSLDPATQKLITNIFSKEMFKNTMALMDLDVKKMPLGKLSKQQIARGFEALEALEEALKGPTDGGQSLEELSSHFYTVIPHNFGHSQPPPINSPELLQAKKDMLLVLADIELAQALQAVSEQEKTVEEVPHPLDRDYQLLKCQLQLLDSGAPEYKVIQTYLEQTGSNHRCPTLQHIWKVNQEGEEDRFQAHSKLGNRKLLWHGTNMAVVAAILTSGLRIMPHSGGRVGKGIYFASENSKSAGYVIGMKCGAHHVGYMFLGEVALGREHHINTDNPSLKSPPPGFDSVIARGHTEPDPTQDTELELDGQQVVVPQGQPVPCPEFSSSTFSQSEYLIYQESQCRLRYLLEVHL
Description: as §1

PARP2 = PARP2 (Homo sapiens, UniProt Q9UGN5)
Description: as §1

Sequence of PARP2 (Q9UGN5 whole entry): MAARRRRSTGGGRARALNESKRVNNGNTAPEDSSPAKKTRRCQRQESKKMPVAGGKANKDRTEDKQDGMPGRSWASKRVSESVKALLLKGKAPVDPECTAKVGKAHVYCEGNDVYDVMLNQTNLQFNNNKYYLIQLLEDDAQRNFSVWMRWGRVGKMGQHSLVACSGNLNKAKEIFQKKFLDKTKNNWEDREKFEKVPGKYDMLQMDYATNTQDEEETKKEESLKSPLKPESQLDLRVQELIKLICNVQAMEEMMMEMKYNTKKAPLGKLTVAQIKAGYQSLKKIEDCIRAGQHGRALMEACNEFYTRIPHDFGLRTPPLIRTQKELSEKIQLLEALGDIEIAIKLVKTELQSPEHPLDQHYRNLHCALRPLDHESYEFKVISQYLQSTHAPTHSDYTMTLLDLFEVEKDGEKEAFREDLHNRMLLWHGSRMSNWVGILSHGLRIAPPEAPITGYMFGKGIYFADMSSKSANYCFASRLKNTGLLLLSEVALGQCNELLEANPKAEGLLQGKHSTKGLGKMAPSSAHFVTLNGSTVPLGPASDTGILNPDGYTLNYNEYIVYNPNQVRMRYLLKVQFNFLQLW

## O=C(Nc1cccc2cccnc12)c1ccc(N2C(=O)[C@@H]3[C@H](C2=O)[C@@H]2C=C[C@H]3C2)cc1 [IWR-1]
PARP12; IWR compounds 10 μM
  % inhibition: 11%
PARP10; IWR compounds 10 μM
  % inhibition: 18%
PARP3; IWR compounds 10 μM
  % inhibition: 6%
PARP2; IWR compounds 10 μM
  % inhibition: 5%

## CCN(C(=O)C1CCN(S(=O)(=O)c2cc3c(cc2Br)CCN3C(C)=O)CC1)c1cccc(C)c1 [IWR-8]
PARP12; IWR compounds 10 μM
  inhibition at 10 µM: 14%
PARP10; IWR compounds 10 μM
  inhibition at 10 µM: 9%
PARP3
  inhibition at 10 µM: 11%
PARP2; IWR compounds 10 μM
  inhibition at 10 µM: 3%

## O=C(c1cc(Cc2n[nH]c(=O)c3ccccc23)ccc1F)N1CCN(C(=O)C2CC2)CC1 [Olaparib]
PARP12
  inhibition at 0.02 µM: 84%
PARP10
  inhibition at 0.02 µM: 99%
PARP3
  inhibition at 0.02 µM: 100%
PARP2
  inhibition at 0.02 µM: 100%

Reference: patent US10420758B2, “Indolinyl-sulfonamide inhibitors of tankyrase and methods of use thereof” (The Board of Regents of the University of Texas System, priority 2015, dated 2019)
